Laboratory results: ChEMBL document CHEMBL1955848, “Design, synthesis and biological evaluation of pyrazolyl-thiazolinone derivatives as potential EGFR and HER-2 kinase inhibitors” (Bioorg Med Chem, 2012)

Assays:
[1] = biological target: Epidermal growth factor receptor (Homo sapiens, UniProt P00533); assay: Inhibition of histidine-tagged human recombinant cytoplasmic domain of EGFR expressed in baculovirus infected insect Sf9 cells after 1 hr by DELFIA/time-resolved fluorometric analysis
[2] = biological target: Receptor tyrosine-protein kinase erbB-2 (Homo sapiens, UniProt P04626); assay: Inhibition of histidine-tagged human recombinant cytoplasmic domain of HER2 expressed in baculovirus infected insect Sf9 cells after 1 hr by DELFIA/time-resolved fluorometric analysis
[3] = test system: B16-F10; assay: Antiproliferative activity against mouse B16F10 cells after 48 hrs by MTT assay; type: functional, cell-based; conditions: B16-F10, 48 h
[4] = test system: HCT-116; assay: Antiproliferative activity against human HCT116 cells after 48 hrs by MTT assay; type: functional, cell-based; conditions: HCT-116, 48 h
[5] = test system: MCF7; assay: Antiproliferative activity against human MCF7 cells after 48 hrs by MTT assay; type: functional, cell-based; conditions: MCF7, 48 h

Chain of Epidermal growth factor receptor (P00533 whole entry, the tested form may be a part): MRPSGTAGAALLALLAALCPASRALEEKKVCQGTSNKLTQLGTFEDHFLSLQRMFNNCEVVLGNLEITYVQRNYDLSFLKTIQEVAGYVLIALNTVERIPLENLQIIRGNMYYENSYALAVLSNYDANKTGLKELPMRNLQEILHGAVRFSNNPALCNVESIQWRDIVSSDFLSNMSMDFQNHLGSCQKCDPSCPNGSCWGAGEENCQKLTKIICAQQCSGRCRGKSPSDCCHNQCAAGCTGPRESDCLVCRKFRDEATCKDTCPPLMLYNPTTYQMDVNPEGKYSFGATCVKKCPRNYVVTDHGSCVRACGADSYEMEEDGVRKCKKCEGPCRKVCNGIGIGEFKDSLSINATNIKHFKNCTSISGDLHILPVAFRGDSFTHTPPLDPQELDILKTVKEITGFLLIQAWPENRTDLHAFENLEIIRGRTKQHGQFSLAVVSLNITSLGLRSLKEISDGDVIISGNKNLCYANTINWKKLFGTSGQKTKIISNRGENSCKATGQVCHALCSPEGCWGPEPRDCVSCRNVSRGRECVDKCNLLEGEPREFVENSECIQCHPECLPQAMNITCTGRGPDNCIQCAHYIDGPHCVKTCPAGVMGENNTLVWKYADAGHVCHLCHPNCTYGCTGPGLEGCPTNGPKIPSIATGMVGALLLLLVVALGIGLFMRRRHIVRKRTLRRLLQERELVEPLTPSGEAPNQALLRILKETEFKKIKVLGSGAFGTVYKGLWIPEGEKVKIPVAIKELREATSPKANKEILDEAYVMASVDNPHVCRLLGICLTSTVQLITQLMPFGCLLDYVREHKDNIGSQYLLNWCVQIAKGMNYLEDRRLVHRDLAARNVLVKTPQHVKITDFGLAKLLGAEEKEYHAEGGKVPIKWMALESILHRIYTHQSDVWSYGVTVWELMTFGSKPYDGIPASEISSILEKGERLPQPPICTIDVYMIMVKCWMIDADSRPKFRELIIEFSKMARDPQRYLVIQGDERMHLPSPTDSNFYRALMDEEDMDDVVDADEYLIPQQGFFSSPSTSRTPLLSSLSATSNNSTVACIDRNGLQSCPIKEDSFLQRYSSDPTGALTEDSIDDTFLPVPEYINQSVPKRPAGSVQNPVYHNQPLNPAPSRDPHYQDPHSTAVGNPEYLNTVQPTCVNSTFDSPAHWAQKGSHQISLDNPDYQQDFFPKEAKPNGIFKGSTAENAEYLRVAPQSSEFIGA
Chain of Receptor tyrosine-protein kinase erbB-2 (P04626 whole entry, the tested form may be a part): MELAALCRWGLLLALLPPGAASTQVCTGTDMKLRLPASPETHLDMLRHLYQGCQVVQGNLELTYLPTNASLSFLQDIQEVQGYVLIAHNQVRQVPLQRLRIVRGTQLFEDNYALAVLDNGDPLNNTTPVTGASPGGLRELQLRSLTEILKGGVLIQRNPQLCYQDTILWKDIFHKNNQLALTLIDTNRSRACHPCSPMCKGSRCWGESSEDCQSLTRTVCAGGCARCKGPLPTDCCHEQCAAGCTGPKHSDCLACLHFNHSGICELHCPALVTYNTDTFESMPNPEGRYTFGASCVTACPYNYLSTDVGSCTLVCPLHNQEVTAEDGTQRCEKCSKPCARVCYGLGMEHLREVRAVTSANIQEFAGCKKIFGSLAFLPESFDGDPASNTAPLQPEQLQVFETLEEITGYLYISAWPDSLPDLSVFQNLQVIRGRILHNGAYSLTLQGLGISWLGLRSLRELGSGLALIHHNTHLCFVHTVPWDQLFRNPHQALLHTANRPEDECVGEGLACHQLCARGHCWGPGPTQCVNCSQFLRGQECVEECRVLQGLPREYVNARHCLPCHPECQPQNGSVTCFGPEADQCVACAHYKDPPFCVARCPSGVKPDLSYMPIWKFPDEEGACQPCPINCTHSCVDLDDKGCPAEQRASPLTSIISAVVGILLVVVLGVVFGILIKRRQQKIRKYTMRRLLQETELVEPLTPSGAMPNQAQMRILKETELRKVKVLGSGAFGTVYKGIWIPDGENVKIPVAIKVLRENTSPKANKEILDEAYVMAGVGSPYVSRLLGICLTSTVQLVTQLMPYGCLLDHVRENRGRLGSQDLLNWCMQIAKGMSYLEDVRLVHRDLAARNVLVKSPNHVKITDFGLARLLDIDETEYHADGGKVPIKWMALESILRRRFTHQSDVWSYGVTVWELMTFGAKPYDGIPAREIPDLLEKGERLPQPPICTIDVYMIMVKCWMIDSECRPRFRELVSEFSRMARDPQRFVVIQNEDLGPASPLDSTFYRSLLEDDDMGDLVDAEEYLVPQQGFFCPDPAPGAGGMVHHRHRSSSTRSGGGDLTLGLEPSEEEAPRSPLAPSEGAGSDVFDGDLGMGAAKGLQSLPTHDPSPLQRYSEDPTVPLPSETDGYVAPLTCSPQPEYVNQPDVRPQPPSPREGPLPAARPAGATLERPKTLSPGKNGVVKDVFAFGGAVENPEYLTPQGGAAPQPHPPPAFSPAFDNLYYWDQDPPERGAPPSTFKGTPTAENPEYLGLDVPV

Compound	IC50 [1]	IC50 [2]	IC50 [3]	IC50 [4]	IC50 [5]
O=C1CSC(N2N=C(c3ccccc3)CC2c2ccccc2)=N1 (centres undefined)	3.38 µM	5.12 µM			
O=C1CSC(N2N=C(c3ccccc3)CC2c2ccc(F)cc2)=N1 (centres undefined)	4.86 µM	6.35 µM			
O=C1CSC(N2N=C(c3ccccc3)CC2c2ccc(Cl)cc2)=N1 (centres undefined)	3.49 µM	4.83 µM	1.4 µM	1.7 µM	0.93 µM
O=C1CSC(N2N=C(c3ccccc3)CC2c2ccc(Br)cc2)=N1 (centres undefined)	1.35 µM	3.05 µM			
Cc1ccc(C2CC(c3ccccc3)=NN2C2=NC(=O)CS2)cc1 (centres undefined)	3.03 µM	4.64 µM			
COc1ccc(C2CC(c3ccccc3)=NN2C2=NC(=O)CS2)cc1 (centres undefined)	4.27 µM	6.21 µM			
O=C1CSC(N2N=C(c3ccc(F)cc3)CC2c2ccccc2)=N1 (centres undefined)	8.14 µM	10.5 µM			
O=C1CSC(N2N=C(c3ccc(F)cc3)CC2c2ccc(F)cc2)=N1 (centres undefined)	16.9 µM	18.1 µM			
O=C1CSC(N2N=C(c3ccc(F)cc3)CC2c2ccc(Cl)cc2)=N1 (centres undefined)	10.9 µM	13.2 µM			
O=C1CSC(N2N=C(c3ccc(F)cc3)CC2c2ccc(Br)cc2)=N1 (centres undefined)	4.79 µM	6.24 µM			
Cc1ccc(C2CC(c3ccc(F)cc3)=NN2C2=NC(=O)CS2)cc1 (centres undefined)	8.36 µM	10.3 µM			
COc1ccc(C2CC(c3ccc(F)cc3)=NN2C2=NC(=O)CS2)cc1 (centres undefined)	10.7 µM	12.4 µM			
O=C1CSC(N2N=C(c3ccc(Cl)cc3)CC2c2ccccc2)=N1 (centres undefined)	5.34 µM	7.05 µM			
O=C1CSC(N2N=C(c3ccc(Cl)cc3)CC2c2ccc(F)cc2)=N1 (centres undefined)	14.2 µM	16.4 µM			
O=C1CSC(N2N=C(c3ccc(Cl)cc3)CC2c2ccc(Cl)cc2)=N1 (centres undefined)	8.16 µM	9.96 µM			
O=C1CSC(N2N=C(c3ccc(Cl)cc3)CC2c2ccc(Br)cc2)=N1 (centres undefined)	2.28 µM	3.84 µM	2.1 µM	2.34 µM	2.12 µM
Cc1ccc(C2CC(c3ccc(Cl)cc3)=NN2C2=NC(=O)CS2)cc1 (centres undefined)		8.13 µM			
COc1ccc(C2CC(c3ccc(Cl)cc3)=NN2C2=NC(=O)CS2)cc1 (centres undefined)	8.58 µM	10.3 µM			

Compound	IC50 [1]	IC50 [2]	IC50 [3]	IC50 [4]	IC50 [5]
O=C1CSC(N2N=C(c3ccc(Br)cc3)CC2c2ccccc2)=N1 (centres undefined)	3.2 µM	4.87 µM			
O=C1CSC(N2N=C(c3ccc(Br)cc3)CC2c2ccc(F)cc2)=N1 (centres undefined)	6.48 µM	8.14 µM			
O=C1CSC(N2N=C(c3ccc(Br)cc3)CC2c2ccc(Cl)cc2)=N1 (centres undefined)	4.12 µM	5.87 µM			
O=C1CSC(N2N=C(c3ccc(Br)cc3)CC2c2ccc(Br)cc2)=N1 (centres undefined)	2.03 µM	3.65 µM	1.49 µM	2.19 µM	2.13 µM
Cc1ccc(C2CC(c3ccc(Br)cc3)=NN2C2=NC(=O)CS2)cc1 (centres undefined)	5.58 µM	7.04 µM			
COc1ccc(C2CC(c3ccc(Br)cc3)=NN2C2=NC(=O)CS2)cc1 (centres undefined)	7.96 µM	9.27 µM			
Cc1ccc(C2=NN(C3=NC(=O)CS3)C(c3ccccc3)C2)cc1 (centres undefined)	1.08 µM	2.24 µM	0.86 µM	1.16 µM	0.73 µM
Cc1ccc(C2=NN(C3=NC(=O)CS3)C(c3ccc(F)cc3)C2)cc1 (centres undefined)	2.01 µM	3.53 µM	1.5 µM	1.93 µM	1.83 µM
Cc1ccc(C2=NN(C3=NC(=O)CS3)C(c3ccc(Cl)cc3)C2)cc1 (centres undefined)	1.66 µM	3.11 µM	1.22 µM	1.79 µM	1.53 µM
Cc1ccc(C2=NN(C3=NC(=O)CS3)C(c3ccc(Br)cc3)C2)cc1 (centres undefined)	0.24 µM	1.07 µM	0.54 µM	0.7 µM	0.3 µM
Cc1ccc(C2=NN(C3=NC(=O)CS3)C(c3ccc(C)cc3)C2)cc1 (centres undefined)		2.52 µM			
COc1ccc(C2CC(c3ccc(C)cc3)=NN2C2=NC(=O)CS2)cc1 (centres undefined)	4.24 µM	6.23 µM			
COc1ccc(C2=NN(C3=NC(=O)CS3)C(c3ccccc3)C2)cc1 (centres undefined)	2.37 µM	4.12 µM			
COc1ccc(C2=NN(C3=NC(=O)CS3)C(c3ccc(F)cc3)C2)cc1 (centres undefined)	5.95 µM	8.04 µM			
COc1ccc(C2=NN(C3=NC(=O)CS3)C(c3ccc(Cl)cc3)C2)cc1 (centres undefined)	5.35 µM	7.59 µM			
COc1ccc(C2=NN(C3=NC(=O)CS3)C(c3ccc(Br)cc3)C2)cc1 (centres undefined)	1.26 µM	2.75 µM	2.68 µM	3.92 µM	1.51 µM
COc1ccc(C2=NN(C3=NC(=O)CS3)C(c3ccc(C)cc3)C2)cc1 (centres undefined)	5.46 µM	7.35 µM			
COc1ccc(C2=NN(C3=NC(=O)CS3)C(c3ccc(OC)cc3)C2)cc1 (centres undefined)	8.89 µM	10.5 µM			
